# Legend:
# Experiment in all cases: relative viability (nuclei count vs DMSO), 5 days (fraction); higher = more cells survive
# NCI-H2126 = system: NCI-H2126
# In short: (§1)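 Each reported value is a median over duplicate plates. It expresses relative viability: treated-well nuclei count divided by vehicle-well nuclei count. Lung cancer cell lines in 1536-well plates were dosed by pin tool a day after seeding, alone with one drug or with a fixed anchor-drug dose plus five library-drug doses (not always all listed) in √10 steps, and nuclei were counted after 5 days.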
# NCI-H441 = system: NCI-H441
# In short: as §1
# NCI-H2347 = system: NCI-H2347
# In short: as §1
# NCI-H596 = system: NCI-H596
# In short: as §1
# NCI-H838 = system: NCI-H838
# In short: as §1
# NCI-H1993 = system: NCI-H1993
# In short: as §1
# NCI-H3122 = system: NCI-H3122
# In short: as §1
# NCI-H650 = system: NCI-H650
# In short: as §1
# EMC-BAC-2 = system: EMC-BAC-2
# In short: as §1
# 201T = system: 201T
# In short: as §1
# BEN = system: BEN
# In short: as §1
# NCI-H647 = system: NCI-H647
# In short: as §1
# LOU-NH91 = system: LOU-NH91
# In short: as §1
# HCC-44 = system: HCC-44
# In short: as §1
# NCI-H2087 = system: NCI-H2087
# In short: as §1
# NCI-H727 = system: NCI-H727
# In short: as §1
# HARA = system: HARA
# In short: as §1
# NCI-H23 = system: NCI-H23
# In short: as §1
# LCLC-103H = system: LCLC-103H
# In short: as §1
# NCI-H522 = system: NCI-H522
# In short: as §1
# NCI-H2023 = system: NCI-H2023
# In short: as §1
# NCI-H1395 = system: NCI-H1395
# In short: as §1
smiles,measurement,setting,value
COc1nc(C)cnc1NS(=O)(=O)c1cccnc1-c1ccc(-c2nnco2)cc1 [Zibotentan] + Cc1cc(Nc2cc(N3CCN(C)CC3)nc(Sc3ccc(NC(=O)C4CC4)cc3)n2)n[nH]1 [Tozasertib] (partner 0.1 µM),relative viability,NCI-H2126; first compound 0.08 µM,0.891
same,relative viability,NCI-H2126; first compound 0.8 µM,0.813
same,relative viability,NCI-H2126; first compound 2.53 µM,0.875
same,relative viability,NCI-H441; first compound 0.08 µM,0.633
same,relative viability,NCI-H441; first compound 0.253 µM,0.545
same,relative viability,NCI-H441; first compound 0.8 µM,0.728
same,relative viability,NCI-H441; first compound 2.53 µM,0.592
same,relative viability,NCI-H2347; first compound 0.253 µM,0.49
same,relative viability,NCI-H2347; first compound 0.8 µM,0.432
same,relative viability,NCI-H2347; first compound 2.53 µM,0.537
same,relative viability,NCI-H596; first compound 0.08 µM,0.883
same,relative viability,NCI-H596; first compound 0.253 µM,0.846
same,relative viability,NCI-H596; first compound 0.8 µM,0.684
same,relative viability,NCI-H596; first compound 2.53 µM,1.07
same,relative viability,NCI-H838; first compound 0.08 µM,0.284
same,relative viability,NCI-H838; first compound 0.253 µM,0.229
same,relative viability,NCI-H838; first compound 0.8 µM,0.274
same,relative viability,NCI-H838; first compound 2.53 µM,0.329
same,relative viability,NCI-H1993; first compound 0.08 µM,0.591
same,relative viability,NCI-H1993; first compound 0.253 µM,0.583
same,relative viability,NCI-H1993; first compound 0.8 µM,0.592
same,relative viability,NCI-H1993; first compound 2.53 µM,0.606
same,relative viability,NCI-H3122; first compound 0.08 µM,0.399
same,relative viability,NCI-H3122; first compound 0.8 µM,0.361
same,relative viability,NCI-H3122; first compound 2.53 µM,0.413
same,relative viability,NCI-H650; first compound 0.08 µM,0.871
same,relative viability,NCI-H650; first compound 0.253 µM,0.699
same,relative viability,NCI-H650; first compound 0.8 µM,0.692
same,relative viability,NCI-H650; first compound 2.53 µM,0.738
same,relative viability,EMC-BAC-2; first compound 0.08 µM,0.286
same,relative viability,EMC-BAC-2; first compound 0.8 µM,0.293
same,relative viability,EMC-BAC-2; first compound 2.53 µM,0.274
same,relative viability,201T; first compound 0.08 µM,1.07
same,relative viability,201T; first compound 0.253 µM,0.881
same,relative viability,201T; first compound 0.8 µM,0.955
same,relative viability,201T; first compound 2.53 µM,1.04
same,relative viability,BEN; first compound 0.08 µM,0.542
same,relative viability,BEN; first compound 0.253 µM,0.426
same,relative viability,BEN; first compound 0.8 µM,0.473
same,relative viability,BEN; first compound 2.53 µM,0.642
same,relative viability,NCI-H647; first compound 0.08 µM,0.307
same,relative viability,NCI-H647; first compound 0.253 µM,0.183
same,relative viability,NCI-H647; first compound 0.8 µM,0.298
same,relative viability,NCI-H647; first compound 2.53 µM,0.262
same,relative viability,LOU-NH91; first compound 0.08 µM,0.729
same,relative viability,LOU-NH91; first compound 0.253 µM,0.586
same,relative viability,LOU-NH91; first compound 0.8 µM,0.722
same,relative viability,LOU-NH91; first compound 2.53 µM,0.669
same,relative viability,HCC-44; first compound 0.08 µM,1.33
same,relative viability,HCC-44; first compound 0.8 µM,0.852
same,relative viability,HCC-44; first compound 2.53 µM,0.862
same,relative viability,NCI-H2087; first compound 0.08 µM,0.249
same,relative viability,NCI-H2087; first compound 0.253 µM,0.268
same,relative viability,NCI-H2087; first compound 0.8 µM,0.249
same,relative viability,NCI-H2087; first compound 2.53 µM,0.238
same,relative viability,NCI-H727; first compound 0.08 µM,0.692
same,relative viability,NCI-H727; first compound 0.253 µM,0.624
same,relative viability,NCI-H727; first compound 0.8 µM,0.629
same,relative viability,NCI-H727; first compound 2.53 µM,0.648
same,relative viability,HARA; first compound 0.08 µM,0.0875
same,relative viability,HARA; first compound 0.253 µM,0.102
same,relative viability,HARA; first compound 0.8 µM,0.13
same,relative viability,HARA; first compound 2.53 µM,0.28
same,relative viability,NCI-H23; first compound 0.08 µM,0.284
same,relative viability,NCI-H23; first compound 0.253 µM,0.331
same,relative viability,NCI-H23; first compound 0.8 µM,0.314
same,relative viability,NCI-H23; first compound 2.53 µM,0.413
same,relative viability,LCLC-103H; first compound 0.08 µM,0.451
same,relative viability,LCLC-103H; first compound 0.253 µM,0.509
same,relative viability,LCLC-103H; first compound 0.8 µM,0.412
same,relative viability,LCLC-103H; first compound 2.53 µM,0.478
same,relative viability,NCI-H522; first compound 0.08 µM,0.573
same,relative viability,NCI-H522; first compound 0.253 µM,0.606
same,relative viability,NCI-H522; first compound 0.8 µM,0.599
same,relative viability,NCI-H522; first compound 2.53 µM,0.568
same,relative viability,NCI-H2023; first compound 0.08 µM,0.356
same,relative viability,NCI-H2023; first compound 0.253 µM,0.254
same,relative viability,NCI-H2023; first compound 0.8 µM,0.298
same,relative viability,NCI-H2023; first compound 2.53 µM,0.387
same,relative viability,NCI-H1395; first compound 0.08 µM,0.74
same,relative viability,NCI-H1395; first compound 0.253 µM,0.762
same,relative viability,NCI-H1395; first compound 0.8 µM,0.733
same,relative viability,NCI-H1395; first compound 2.53 µM,0.794
COc1nc(C)cnc1NS(=O)(=O)c1cccnc1-c1ccc(-c2nnco2)cc1 [Zibotentan] + COc1cccc2cc(-c3nc([C@H]4CC[C@H](C(=O)O)CC4)n4ncnc(N)c34)[nH]c12 [OSI-027] (partner 0.5 µM),relative viability,NCI-H2126; first compound 0.08 µM,0.769
same,relative viability,NCI-H2126; first compound 0.253 µM,0.718
same,relative viability,NCI-H2126; first compound 0.8 µM,0.609
same,relative viability,NCI-H2126; first compound 2.53 µM,0.684
same,relative viability,NCI-H441; first compound 0.08 µM,0.823
same,relative viability,NCI-H441; first compound 0.253 µM,0.404
same,relative viability,NCI-H441; first compound 0.8 µM,0.818
same,relative viability,NCI-H441; first compound 2.53 µM,0.752
same,relative viability,NCI-H2347; first compound 0.253 µM,0.384
same,relative viability,NCI-H2347; first compound 0.8 µM,0.49
same,relative viability,NCI-H2347; first compound 2.53 µM,0.259
same,relative viability,NCI-H596; first compound 0.08 µM,0.776
same,relative viability,NCI-H596; first compound 0.253 µM,0.643
same,relative viability,NCI-H596; first compound 0.8 µM,0.52
same,relative viability,NCI-H596; first compound 2.53 µM,0.717
same,relative viability,NCI-H838; first compound 0.08 µM,0.349
same,relative viability,NCI-H838; first compound 0.253 µM,0.366
same,relative viability,NCI-H838; first compound 0.8 µM,0.393
same,relative viability,NCI-H838; first compound 2.53 µM,0.389
same,relative viability,NCI-H1993; first compound 0.08 µM,0.522
same,relative viability,NCI-H1993; first compound 0.253 µM,0.494
same,relative viability,NCI-H1993; first compound 0.8 µM,0.468
same,relative viability,NCI-H1993; first compound 2.53 µM,0.525
same,relative viability,NCI-H3122; first compound 0.08 µM,1.01
same,relative viability,NCI-H3122; first compound 0.8 µM,0.915
same,relative viability,NCI-H3122; first compound 2.53 µM,0.957
same,relative viability,NCI-H650; first compound 0.08 µM,0.54
same,relative viability,NCI-H650; first compound 0.253 µM,0.509
same,relative viability,NCI-H650; first compound 0.8 µM,0.566
same,relative viability,NCI-H650; first compound 2.53 µM,0.649
same,relative viability,EMC-BAC-2; first compound 0.08 µM,0.376
same,relative viability,EMC-BAC-2; first compound 0.8 µM,0.381
same,relative viability,EMC-BAC-2; first compound 2.53 µM,0.414
same,relative viability,201T; first compound 0.08 µM,0.819
same,relative viability,201T; first compound 0.253 µM,0.699
same,relative viability,201T; first compound 0.8 µM,0.679
same,relative viability,201T; first compound 2.53 µM,0.755
same,relative viability,BEN; first compound 0.08 µM,0.301
same,relative viability,BEN; first compound 0.253 µM,0.286
same,relative viability,BEN; first compound 0.8 µM,0.27
same,relative viability,BEN; first compound 2.53 µM,0.261
same,relative viability,NCI-H647; first compound 0.08 µM,0.665
same,relative viability,NCI-H647; first compound 0.253 µM,0.584
same,relative viability,NCI-H647; first compound 0.8 µM,0.755
same,relative viability,NCI-H647; first compound 2.53 µM,0.725
same,relative viability,LOU-NH91; first compound 0.08 µM,0.673
same,relative viability,LOU-NH91; first compound 0.253 µM,0.681
same,relative viability,LOU-NH91; first compound 0.8 µM,0.732
same,relative viability,LOU-NH91; first compound 2.53 µM,0.784
same,relative viability,HCC-44; first compound 0.08 µM,0.585
same,relative viability,HCC-44; first compound 0.8 µM,0.621
same,relative viability,HCC-44; first compound 2.53 µM,0.558
same,relative viability,NCI-H2087; first compound 0.08 µM,0.506
same,relative viability,NCI-H2087; first compound 0.253 µM,0.506
same,relative viability,NCI-H2087; first compound 0.8 µM,0.613
same,relative viability,NCI-H2087; first compound 2.53 µM,0.632
same,relative viability,NCI-H727; first compound 0.08 µM,0.591
same,relative viability,NCI-H727; first compound 0.253 µM,0.499
same,relative viability,NCI-H727; first compound 0.8 µM,0.601
same,relative viability,NCI-H727; first compound 2.53 µM,0.696
same,relative viability,HARA; first compound 0.08 µM,0.42
same,relative viability,HARA; first compound 0.253 µM,0.462
same,relative viability,HARA; first compound 0.8 µM,0.437
same,relative viability,HARA; first compound 2.53 µM,0.715
same,relative viability,NCI-H23; first compound 0.08 µM,0.63
same,relative viability,NCI-H23; first compound 0.253 µM,0.619
same,relative viability,NCI-H23; first compound 0.8 µM,0.389
same,relative viability,NCI-H23; first compound 2.53 µM,0.743
same,relative viability,LCLC-103H; first compound 0.08 µM,0.453
same,relative viability,LCLC-103H; first compound 0.253 µM,0.467
same,relative viability,LCLC-103H; first compound 0.8 µM,0.451
same,relative viability,LCLC-103H; first compound 2.53 µM,0.465
same,relative viability,NCI-H522; first compound 0.08 µM,0.704
same,relative viability,NCI-H522; first compound 0.253 µM,0.717
same,relative viability,NCI-H522; first compound 0.8 µM,0.684
same,relative viability,NCI-H522; first compound 2.53 µM,0.835
same,relative viability,NCI-H2023; first compound 0.08 µM,0.475
same,relative viability,NCI-H2023; first compound 0.253 µM,0.228
same,relative viability,NCI-H2023; first compound 0.8 µM,0.371
same,relative viability,NCI-H2023; first compound 2.53 µM,0.476
same,relative viability,NCI-H1395; first compound 0.08 µM,0.727
same,relative viability,NCI-H1395; first compound 0.253 µM,0.633
same,relative viability,NCI-H1395; first compound 0.8 µM,0.577
same,relative viability,NCI-H1395; first compound 2.53 µM,0.7

# Source: the supplement of paper PMC10307832
